In article PMC11167047 (Cell Death Discovery, 2024):

Tests used:
Experiment in all cases: kinome screen (33PanQinase)
Format in all cases: biochemical
TSF1 = target: T1, TSF1 (Homo sapiens, UniProt O75716)
T1 construct: purchased Reaction Biology Europe GmbH (formerly ProQinase)
Procedure: (§1) The Kinome Screening was performed by Reaction Biology Europe GmbH (http://reactionbiology.com; Freiburg i. Br., Germany).

MASTL = target: T2, MASTL (Homo sapiens, UniProt Q96GX5)
T2 construct: purchased Reaction Biology Europe GmbH (formerly ProQinase)
T2 sequence (Q96GX5 1-879): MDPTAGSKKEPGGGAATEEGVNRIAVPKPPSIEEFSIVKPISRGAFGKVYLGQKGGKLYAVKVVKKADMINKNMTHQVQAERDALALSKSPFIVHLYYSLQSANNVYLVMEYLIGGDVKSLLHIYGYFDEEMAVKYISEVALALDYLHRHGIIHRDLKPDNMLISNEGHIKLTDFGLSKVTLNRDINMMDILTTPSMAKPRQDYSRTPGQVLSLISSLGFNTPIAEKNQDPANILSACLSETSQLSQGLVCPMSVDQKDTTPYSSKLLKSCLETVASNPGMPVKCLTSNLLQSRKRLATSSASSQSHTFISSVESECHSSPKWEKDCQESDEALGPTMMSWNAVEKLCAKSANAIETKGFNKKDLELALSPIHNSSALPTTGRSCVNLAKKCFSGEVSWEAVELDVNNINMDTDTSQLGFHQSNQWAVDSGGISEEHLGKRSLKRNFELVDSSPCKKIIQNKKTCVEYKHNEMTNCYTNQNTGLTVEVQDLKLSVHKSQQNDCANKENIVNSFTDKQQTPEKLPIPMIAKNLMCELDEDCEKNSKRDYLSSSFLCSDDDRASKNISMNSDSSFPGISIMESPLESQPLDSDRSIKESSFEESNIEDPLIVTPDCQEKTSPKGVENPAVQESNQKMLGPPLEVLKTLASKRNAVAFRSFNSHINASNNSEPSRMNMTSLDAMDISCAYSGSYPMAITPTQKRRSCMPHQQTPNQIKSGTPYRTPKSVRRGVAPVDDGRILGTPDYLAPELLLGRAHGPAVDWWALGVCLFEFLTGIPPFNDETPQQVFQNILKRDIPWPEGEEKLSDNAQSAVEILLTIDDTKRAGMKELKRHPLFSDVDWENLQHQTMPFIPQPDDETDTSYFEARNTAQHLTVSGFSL
Procedure: as §1

HRI = target: T3, HRI (Homo sapiens, UniProt Q9BQI3)
T3 construct: purchased Reaction Biology Europe GmbH (formerly ProQinase)
T3 sequence (Q9BQI3 whole entry): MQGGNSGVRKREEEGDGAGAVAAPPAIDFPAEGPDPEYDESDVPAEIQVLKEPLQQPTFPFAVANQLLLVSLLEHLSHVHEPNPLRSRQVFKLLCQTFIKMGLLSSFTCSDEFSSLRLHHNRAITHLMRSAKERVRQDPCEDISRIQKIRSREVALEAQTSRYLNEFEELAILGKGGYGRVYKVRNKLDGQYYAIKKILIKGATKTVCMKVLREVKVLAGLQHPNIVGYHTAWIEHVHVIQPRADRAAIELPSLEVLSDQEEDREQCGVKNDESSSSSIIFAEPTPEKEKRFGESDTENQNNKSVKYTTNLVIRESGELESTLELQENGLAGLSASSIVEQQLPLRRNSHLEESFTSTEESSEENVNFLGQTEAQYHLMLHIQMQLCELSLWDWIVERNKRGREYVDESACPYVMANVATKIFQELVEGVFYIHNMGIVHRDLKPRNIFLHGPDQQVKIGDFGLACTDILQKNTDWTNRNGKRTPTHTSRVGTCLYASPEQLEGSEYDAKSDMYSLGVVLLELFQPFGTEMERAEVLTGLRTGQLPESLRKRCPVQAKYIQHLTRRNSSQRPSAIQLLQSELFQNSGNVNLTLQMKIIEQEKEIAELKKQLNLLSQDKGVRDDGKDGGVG
Procedure: as §1

AXL = target: T4, AXL (Homo sapiens, UniProt P30530)
T4 construct: purchased Reaction Biology Europe GmbH (formerly ProQinase)
T4 sequence (P30530 26-894): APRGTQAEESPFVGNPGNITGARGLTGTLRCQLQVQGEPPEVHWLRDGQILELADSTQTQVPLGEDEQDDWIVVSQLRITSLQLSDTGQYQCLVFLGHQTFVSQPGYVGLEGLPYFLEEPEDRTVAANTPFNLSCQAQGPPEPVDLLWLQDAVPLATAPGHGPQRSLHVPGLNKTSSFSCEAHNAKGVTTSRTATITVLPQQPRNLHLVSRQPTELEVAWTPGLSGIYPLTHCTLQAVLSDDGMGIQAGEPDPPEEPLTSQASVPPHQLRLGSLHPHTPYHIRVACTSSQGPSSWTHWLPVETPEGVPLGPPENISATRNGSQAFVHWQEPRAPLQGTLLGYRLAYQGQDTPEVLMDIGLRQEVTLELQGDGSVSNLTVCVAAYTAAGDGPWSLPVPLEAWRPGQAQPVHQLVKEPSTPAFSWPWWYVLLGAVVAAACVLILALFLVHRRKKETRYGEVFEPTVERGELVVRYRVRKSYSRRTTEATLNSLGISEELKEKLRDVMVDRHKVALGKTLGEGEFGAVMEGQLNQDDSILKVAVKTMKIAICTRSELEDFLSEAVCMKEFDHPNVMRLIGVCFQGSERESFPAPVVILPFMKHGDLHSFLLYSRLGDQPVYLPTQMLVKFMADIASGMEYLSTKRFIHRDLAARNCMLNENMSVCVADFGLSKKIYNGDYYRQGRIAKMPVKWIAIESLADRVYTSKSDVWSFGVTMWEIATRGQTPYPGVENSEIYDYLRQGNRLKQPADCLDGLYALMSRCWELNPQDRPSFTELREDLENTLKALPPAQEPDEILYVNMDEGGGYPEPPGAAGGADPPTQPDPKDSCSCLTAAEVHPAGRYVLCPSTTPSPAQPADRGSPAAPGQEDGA
Procedure: as §1

BUB1B = target: T5, BUB1B (Homo sapiens, UniProt O60566)
T5 construct: purchased Reaction Biology Europe GmbH (formerly ProQinase)
T5 sequence (O60566 whole entry): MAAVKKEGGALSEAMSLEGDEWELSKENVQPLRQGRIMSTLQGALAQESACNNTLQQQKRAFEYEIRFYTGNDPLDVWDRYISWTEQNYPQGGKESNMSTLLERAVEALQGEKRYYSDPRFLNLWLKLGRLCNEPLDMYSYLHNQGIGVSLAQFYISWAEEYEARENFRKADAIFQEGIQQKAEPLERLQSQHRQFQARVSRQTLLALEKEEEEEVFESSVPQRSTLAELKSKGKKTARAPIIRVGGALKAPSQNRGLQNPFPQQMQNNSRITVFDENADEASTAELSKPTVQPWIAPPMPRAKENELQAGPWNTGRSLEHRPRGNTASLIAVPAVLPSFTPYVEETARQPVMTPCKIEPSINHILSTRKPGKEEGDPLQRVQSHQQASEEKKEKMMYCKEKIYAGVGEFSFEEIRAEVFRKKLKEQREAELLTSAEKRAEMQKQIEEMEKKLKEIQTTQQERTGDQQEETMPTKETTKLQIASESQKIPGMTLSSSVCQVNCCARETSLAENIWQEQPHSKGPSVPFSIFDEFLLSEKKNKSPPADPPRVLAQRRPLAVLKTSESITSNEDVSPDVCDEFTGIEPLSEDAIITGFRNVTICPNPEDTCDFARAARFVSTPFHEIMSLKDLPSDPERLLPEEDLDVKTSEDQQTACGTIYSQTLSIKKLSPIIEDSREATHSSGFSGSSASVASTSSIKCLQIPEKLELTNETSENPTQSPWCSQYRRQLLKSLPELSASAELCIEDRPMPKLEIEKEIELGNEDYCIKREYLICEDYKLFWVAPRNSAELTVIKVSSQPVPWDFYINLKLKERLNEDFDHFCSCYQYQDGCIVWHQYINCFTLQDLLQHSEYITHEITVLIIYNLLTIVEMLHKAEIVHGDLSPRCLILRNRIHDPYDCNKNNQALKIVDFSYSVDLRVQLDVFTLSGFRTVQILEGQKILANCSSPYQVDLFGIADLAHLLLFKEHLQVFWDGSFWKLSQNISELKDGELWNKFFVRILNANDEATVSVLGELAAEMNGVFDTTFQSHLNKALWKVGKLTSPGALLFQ
Procedure: as §1

BMX = target: T6, BMX (Homo sapiens, UniProt P51813)
T6 construct: purchased Reaction Biology Europe GmbH (formerly ProQinase)
T6 sequence (P51813 1-675): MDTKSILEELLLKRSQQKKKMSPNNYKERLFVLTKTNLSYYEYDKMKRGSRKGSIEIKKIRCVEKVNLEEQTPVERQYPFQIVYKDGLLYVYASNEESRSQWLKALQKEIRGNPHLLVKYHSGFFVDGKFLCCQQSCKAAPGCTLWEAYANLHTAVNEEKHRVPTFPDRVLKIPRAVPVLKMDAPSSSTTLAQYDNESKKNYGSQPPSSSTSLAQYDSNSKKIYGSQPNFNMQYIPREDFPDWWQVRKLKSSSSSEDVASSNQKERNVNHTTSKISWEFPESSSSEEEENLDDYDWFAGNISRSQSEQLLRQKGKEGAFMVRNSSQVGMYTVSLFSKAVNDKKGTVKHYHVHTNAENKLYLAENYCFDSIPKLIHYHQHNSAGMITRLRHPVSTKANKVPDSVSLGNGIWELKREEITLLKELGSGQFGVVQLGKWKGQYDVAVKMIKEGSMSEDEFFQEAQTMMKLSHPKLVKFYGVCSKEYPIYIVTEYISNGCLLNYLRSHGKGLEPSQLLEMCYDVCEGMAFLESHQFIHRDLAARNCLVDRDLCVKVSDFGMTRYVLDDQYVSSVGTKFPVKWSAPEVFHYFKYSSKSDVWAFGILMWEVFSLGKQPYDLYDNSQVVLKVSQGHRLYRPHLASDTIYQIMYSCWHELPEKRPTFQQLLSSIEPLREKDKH
Procedure: as §1

T1 sequence (O75716 whole entry): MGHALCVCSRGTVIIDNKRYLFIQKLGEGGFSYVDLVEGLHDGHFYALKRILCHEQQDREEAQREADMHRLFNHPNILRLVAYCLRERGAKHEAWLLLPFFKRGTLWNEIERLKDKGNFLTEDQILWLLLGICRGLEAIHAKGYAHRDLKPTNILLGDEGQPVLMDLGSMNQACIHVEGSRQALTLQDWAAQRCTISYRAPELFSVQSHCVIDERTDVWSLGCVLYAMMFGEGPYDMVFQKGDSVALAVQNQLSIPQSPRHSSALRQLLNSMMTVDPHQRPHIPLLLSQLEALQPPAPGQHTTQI

Structure (SMILES)	residual kinase activity (TSF1; 0.03 µM)	residual kinase activity (TSF1; 0.3 µM)	residual kinase activity (MASTL; 0.03 µM)	residual kinase activity (MASTL; 0.3 µM)	residual kinase activity (HRI; 0.03 µM)	residual kinase activity (HRI; 0.3 µM)	residual kinase activity (AXL; 0.03 µM)	residual kinase activity (AXL; 0.3 µM)	residual kinase activity (BUB1B; 0.03 µM)	residual kinase activity (BUB1B; 0.3 µM)	residual kinase activity (BMX; 0.03 µM)	residual kinase activity (BMX; 0.3 µM)	residual kinase activity (TSF1; 3 µM)	residual kinase activity (MASTL; 3 µM)	residual kinase activity (HRI; 3 µM)	residual kinase activity (AXL; 3 µM)	residual kinase activity (BUB1B; 3 µM)	residual kinase activity (BMX; 3 µM)
COc1ccnc2[nH]cc(-c3cc(N)nc(N)c3)c12 [meriolin 16]	109 % of control	104 % of control	87 % of control	56 % of control	98 % of control	90 % of control	101 % of control	75 % of control	88 % of control	81 % of control	118 % of control	103 % of control	–	–	–	–	–	–
c1ccc(CNc2cc(-c3c[nH]c4ncccc34)ccn2)cc1 [meriolin 36]	–	57 % of control	–	64 % of control	–	93 % of control	–	75 % of control	–	89 % of control	–	109 % of control	8 % of control	26 % of control	71 % of control	28 % of control	73 % of control	49 % of control
